# According to patent US9101642B2, “Ticagrelor co-crystal” (AstraZeneca AB, priority 2011, dated 2015):
# Experiments:
# [1] = Micro-dissolution in blank Fassif (fasted intestinal fluid without micelle forming components); type: physicochemical; conditions: blank Fassif pH 6.5, 9 mg in 25 ml, mean of n = 2
# Experimental: (§1) Micro-dissolution investigations were performed on 9 mg of a sample of Compound A:acetyl salicylic acid co-crystal (prepared as described in Example 4) or Compound A Form II in both 25 ml of (i) Fasted intestinal fluid (Fassif) without micelle forming components (termed blank Fassif) and (ii) of Simulated Gastric Fluid (SGF). The samples were magnetically stirred and aliquots were taken at appropriate time intervals, centrifuged and the supernatant analysed by HPLC and the concentration of Compound A measured as a function of time.
# Fasted intestinal fluid without micelle forming components (blank Fassif) media was prepared from 0.348 g NaOH pellets, 3.954 g NaH2PO4.H2O and 6.186 g NaCl in 1 L milli-Q water. The pH was then adjusted to pH 6.5 with 1N NaOH or 1N HCl.
# [2] = Micro-dissolution in Simulated Gastric Fluid (SGF); type: physicochemical; conditions: 9 mg in 25 ml, mean of n = 2
# Experimental: as §1
# Simulated Gastric Fluid (SGF) media was prepared by adding 131.5 ml 1M HCl to 4 g NaCl and the resulting solution made up to 2 Liters with milli-Q water (de-ionised water).
structure (smiles),measurement,setting,value
"CCCSc1nc(N[C@@H]2C[C@H]2c2ccc(F)c(F)c2)c2nnn([C@@H]3C[C@H](OCCO)[C@@H](O)[C@H]3O)c2n1 (relative stereo) [Compound A Form II, {1S-[1α,2α, 3β(1S*,2R*),5β]}-3-(7-{[2-(3,4-difluorophenyl)cyclopropyl]amino}-5-(propylthio)-3H-1,2,3-triazolo[4,5-d]pyrimidin-3-yl)-5-(2-hydroxyethoxy)cyclopentane-1,2-diol]",Concentration of Compound A,[1]; time 0 mins,0 ng/mL
same,Concentration of Compound A,[1]; time 10 mins,2950 ng/mL
same,Concentration of Compound A,[1]; time 20 mins,3240 ng/mL
same,Concentration of Compound A,[1]; time 30 mins,3310 ng/mL
same,Concentration of Compound A,[1]; time 60 mins,3510 ng/mL
same,Concentration of Compound A,[1]; time 240 mins,3370 ng/mL
same,Concentration of Compound A,[2]; time 0 mins,0 ng/mL
same,Concentration of Compound A,[2]; time 10 mins,7820 ng/mL
same,Concentration of Compound A,[2]; time 20 mins,8100 ng/mL
same,Concentration of Compound A,[2]; time 30 mins,8520 ng/mL
same,Concentration of Compound A,[2]; time 60 mins,8100 ng/mL
same,Concentration of Compound A,[2]; time 240 mins,8450 ng/mL
